The text below walks through data of US6770632B1, “Folypolyglutamyl synthetase gene transfer to enhance antifolate” (priority 1999, dated 2004).

“And” between values parts separate entries of the source, which are not always exact repeats. Equal entries are not always repeated. Where two headings read alike, the source gives them in different places.

The test system of data set [1] is 9L cells transfected with CD. To be noted: 9L cells stably transfected with E. coli cytosine deaminase cDNA; cited from earlier work.
The subject of data set [2] is cocultures with nitroreductase-expressing cells. To be noted: cited from earlier work.
Data set [3] has as its system rhabdomyosarcoma cell line. To be noted: rhabdomyosarcoma cell line transfected with rabbit carboxylesterase cDNA; cited from earlier work.
For another data set, the system named is FPGS. To be noted: relative to MTX; cited from earlier work.
Another data set deals with 9L/BAG cells. Briefly: Conditioned medium colony formation of 9L/BAG cells. The class given is cell-based, rat.
Data set [4] concerns mixed subcutaneous tumors 20% 9L/FPGS and 80% 9L cells. As to the kind of experiment: Growth of mixed subcutaneous tumors (20% 9L/FPGS + 80% 9L) in nude mice. The format is in vivo. As to conditions: 3 mg/kg daily i.p. As to the method: (§1) In Vivo Experiments: 10^5 9L or 9L/FPGS cells or a mixture of 8×10^5 9L+2×10^5 9L/FPGS cells in 200 μL DMEM were injected subcutaneously into the flanks of six week old female nude mice (NCr/Sed, nu/nu, 20 gm; Massachusetts General Hospital breeding colony). After 14 days, when the tumors had reached an average volume of 60 mm^3, the mice were randomly divided into experimental groups with five mice per group. Intraperitoneal injections of varying MTX or EDX doses dissolved in 200 μL 0.9% NaCl were administered either daily or every third day. Tumor size was measured weekly using calipers. Tumor volume was calculated as length×width×height, as described previously (Takamiya, Y., et al., Journal of Neuroscience Research 33:493-503 (1992)).

Data set [5] has as its system cocultures of 9L/FPGS and 9L cells. As to the kind of experiment: Bystander effect study, cocultures of 9L/FPGS and 9L cells. The format is cell-based, rat. As to conditions: for EC50: Rattus norvegicus, 4 h, 4 hrs drug exposure, FIG. 4b, read-out: ED50 (the source's name); for transmission efficiency (TE): 4 hour pulses. As to the method:
For bystander effect studies, cells were plated in triplicate with varying combinations of 9L/FPGS and 9L cells such that the total number of cells was 8×10^5 per 10-cm-diameter plate. The same protocol of 4 hour cell adherence followed by 4 hour drug exposure, washes, growth in drug free medium for 3 days, and counting on a ZM coulter apparatus was then followed. […] Four mL conditioned medium+2 mL fresh medium were added to 10-cm-diameter plates containing 9L/BAG cells plated overnight (1000 cells/dish, with a clonogenic efficiency of approximately 20%). Six days later, the cells were fixed with 4% paraformaldehyde in PBS. Fixed cells were stained for LacZ by incubating overnight in a solution containing 35 mM potassium ferricyanide, 35 mM potassium ferrocyanide, 2 mM magnesium chloride, and 0.2% 5-bromo-4-chloro-3-indolyl-β-D galactoside (Xgal; Fisher Scientific Co.;Pittsburgh, Pa.) at pH=7.3 (Price, J., et al., Proceedings of the National Academy of Sciences USA 84:156-160 (1987)). The next day, blue colonies greater than 1 mm in diameter were counted.
However, a more quantitative approach is to generate a dose-response curve for nontransfected cells, transfected cells, and a coculture and to calculate the transmission efficiency (TE) for the coculture (Friedlos, F., et al., Journal of Medicinal Chemistry 40:1270-1275 (1997)). [formula]
The superscripts 0, N, and 100 designate the ED50 values for cultures containing 0, N, and 100% transfected cells.

The subject of the next data set is subcutaneous 9L tumors. As to the kind of experiment: Growth of subcutaneous 9L tumors in nude mice. The format is in vivo. As to conditions: 3 mg/kg daily i.p. As to the method: as §1
The test system of data set [6] is 9L/FPGS cells. Briefly: Cell culture survival study, 9L/FPGS cells. The class given is cell-based, rat. As to conditions: for EC50: Rattus norvegicus, 4 h, 9L/FPGS, read-out: ED50 (the source's name). The protocol:
(§2) Cell Culture Survival Studies: Cells were plated in triplicate at 8×10^5 cells per 10-cm-diameter plate, and were allowed to adhere for 4 hours, after which the medium was replaced with medium containing MTX or EDX. […] Drug-free medium was then added, and three days later the cells were trypsinized and counted on a model ZM Coulter apparatus. Dose-response curves were generated using Sigma Plot 3.0, which employs curve-fitting parameters based on the Marquardt-Levenberg method (Marquardt, D. W., Siam, J., J. Soc. Indust. Appl. Math 11:431-441 (1963)).

A short description of a further data set: in vivo. To be noted: nude, mouse, ip.
Data set [7] concerns subcutaneous 9L/FPGS tumors. As to the kind of experiment: Growth of subcutaneous 9L/FPGS tumors in nude mice. The format is in vivo. To be noted: 3 mg/kg daily i.p. As to the method: as §1
For data set [8], the system named is 9L cells. As to the kind of experiment: Cell culture survival study, 9L cells. The class given is cell-based, rat. As to conditions: Rattus norvegicus, 4 h, 9L, read-out: ED50 (the source's name). The protocol: as §2
Data set [9] has as its system 9L/FPGS cells. As to the kind of experiment: [3H]MTX accumulation and thin layer chromatography of MTX polyglutamates in 9L/FPGS cells. To be noted: 24 hour exposure to 2 μM MTX, TLC.
Protocol: (§3) Thin Layer Chromatography of MTX Metabolites: 10^6 9L or 9L/FPGS cells were plated in 6-cm diameter dishes and allowed to adhere for 4 hours, after which cells were incubated overnight with 2 μM 3′, 5′, 7-[^3H] methotrexate (Moravek Biochemicals; Brea, Calif.). Cells were then trypsinized, centrifuged, resuspended in 300 μL deionized water, and sonicated for 45 seconds at half-maximal power. Sonicated cells were centrifuged briefly to remove cellular debris, after which protein concentration was calculated using the Bradford protein assay. Proteins were precipitated with 1 mL methanol at −20° C. for 2 hr. Precipitated proteins were removed by centrifugation at 20,000 g for 30 min, and the supernatant was then concentrated to 30 μL under a stream of N2 at 37° C. on a Meyer N-Evap Analytical Evaporator (Organomation Associates Inc., Northborough, Mass.). A 1 μL aliquot was scintillation counted—cpm were converted into moles of drug taken up by determining the cpm of a known quantity of [^3H] MTX. […] Plates were eluted with a chloroforrn-methanol-acetic acid mixture (2:2:1) containing 20 mg/mL cetyl trimethylammonium bromide (Sigma). Following elution, the plates were placed under ordinary fluorescent light for 2 days, after which 20 nmol unlabelled standards were visualized under long-wave ultraviolet light. Plates were run in duplicate and the average RF values of the standards were: MTX=0.66; MTX-G1=0.59; MTX-G2=0.44, MTX-G3=0.33; MTX-G4=0.27; MTX-G5=0.25. Regions corresponding to where standards migrated were marked in the sample lane, scraped individually into scintillation vials, and counted. The amount of each radioactive metabolite in a sample lane was determined as a percentage of the total radioactivity recovered from that sample lane, after subtraction of the background counts obtained from lanes lacking radioactive sample.
In data set [10] the test system is 9L cells. As to the kind of experiment: [3H]MTX accumulation and thin layer chromatography of MTX polyglutamates in 9L cells. To be noted: 24 hour exposure to 2 μM MTX, TLC.
Protocol: as §3
Data set [11] deals with 9L cells transfected with HSV-TK. To be noted: 9L cells stably transfected with HSV-TK cDNA; cited from earlier work.
The mark [12] stands for this setting: 4 hour pulse, repeat of the dose-response curve (Table 3 footnote c).
The mark [13] stands for this setting: 4 hrs drug exposure, curves of FIG. 1 (MTX) / FIG. 3a (EDX).

Protocol for 9L/BAG cells: Four mL conditioned medium+2 mL fresh medium were added to 10-cm-diameter plates containing 9L/BAG cells plated overnight (1000 cells/dish, with a clonogenic efficiency of approximately 20%). Six days later, the cells were fixed with 4% paraformaldehyde in PBS. […] The next day, blue colonies greater than 1 mm in diameter were counted.
This conditioned medium was then added to 9L/BAG cells. A week later, the cells were stained for LacZ expression, which allowed colony formation to be assayed.

In the case of `Nc1nc(=O)[nH]cc1F` [5-fluorocytosine], in data set [1], the “ED50 shift nontransfected versus transfected cells” value is reported as 80 fold.
For the compound `NC(=O)c1cc(N2CC2)c([N+](=O)[O-])cc1[N+](=O)[O-]` [CB1954], the values for the TE values result in data set [2] (1% cocultures) and in [2] (10% cocultures) were “above 50%” and “above 70%”, respectively.
With `CCc1c2c(nc3ccc(OC(=O)N4CCC(N5CCCCC5)CC4)cc13)-c1cc3c(c(=O)n1C2)COC(=O)[C@]3(O)CC` [CPT-11], in [3], the “decrease in ED50 on transfection” value is reported as 8 fold.
With `CCC(Cc1cnc2nc(N)nc(N)c2n1)c1ccc(C(=O)N[C@@H](CCC(=O)O)C(=O)O)cc1` (stereo partly shown) [EDX, Edatrexate], the “Km of FPGS, lower than its Km for MTX” value with FPGS is listed as 4-5 fold. For the same compound, the results for the “9L/BAG colonies relative to conditioned medium from non-treated cells” value with 9L/BAG cells (conditioned medium from 9L cells pulsed with 0.3 μM for 4 hours) and with 9L/BAG cells (conditioned medium from 9L/FPGS cells pulsed with 0.3 μM for 4 hours) were 83% and 47%, respectively. Moreover, the “fold growth of tumor volume” value in [4] (after three weeks) was 5 fold; in [4] (after two weeks) it was “more than 4 fold”; in the data set with subcutaneous 9L tumors (after three weeks), 10 fold; in the data set with subcutaneous 9L tumors (after two weeks), 8 fold; in data set [7] (after two weeks) it was “less than 4 fold”. Moreover, the EC50 in data set [5] (coculture 1% 9L/FPGS) amounted to 605 nM; in data set [5] (coculture 10% 9L/FPGS), 337 nM; in data set [5] (coculture 20% 9L/FPGS) it was 134 nM; with 9L/FPGS cells [6] (setting [12]) it was 26 nM; in the data set with 9L/FPGS cells [6] (4 hrs drug exposure, bystander experiment FIG. 4a (MTX) / 4b (EDX)), 20 nM; with 9L/FPGS cells [6] (setting [13]) it was 18 nM. Further, the EC50 came to 1200 nM with 9L cells [8] (setting [12]); 895 nM in the data set with 9L cells [8] (4 hrs drug exposure, bystander experiment FIG. 4b); 1200 nM in the data set with 9L cells [8] (setting [13]). Moreover, the “transmission efficiency (TE)” value is 33.1% and 33% in data set [5] (cocultures containing 1% 9L/FPGS cells); 63.8% and 64% in data set [5] (cocultures containing 10% 9L/FPGS cells); 87% in data set [5] (cocultures containing 20% 9L/FPGS cells). For the same compound, the survival result in the data set with 9L/FPGS cells [6] (9L/FPGS cells, 300 nM, 4 hour pulse) is on record as “below 10%”. Also, the “range of concentrations with statistically significant difference in survival between 9L and 9L/FPGS” value in the data set on 9L/FPGS cells [6] (4 hour pulses) was 10,000 fold. Further, in the data set on 9L/FPGS cells [6] (4 hour pulses, FIG. 1 / FIG. 3A), the “difference in ED50 between 9L and 9L/FPGS” value is given as 67 fold. The compound further came in with an MTD in the data set “in vivo” of 3 mg/kg/day. Also, the “growth of tumor volume” value in [7] (after three weeks) is reported as “doubled in volume”.
With `CN(Cc1cnc2nc(N)nc(N)c2n1)c1ccc(C(=O)NC(CCC(=O)NC(CCC(=O)O)C(=O)O)C(=O)O)cc1` (stereo not shown) [MTX-G1], the “POLYGLUTAMATE DISTRIBUTION (percentages of total sample lane radioactivity)” value with 9L/FPGS cells [9] came out at 22%; in the data set with 9L cells [10], 29%.
Turning to `CN(Cc1cnc2nc(N)nc(N)c2n1)c1ccc(C(=O)NC(CCC(=O)NC(CCC(=O)NC(CCC(=O)O)C(=O)O)C(=O)O)C(=O)O)cc1` (stereo not shown) [MTX-G2], the results for the “POLYGLUTAMATE DISTRIBUTION (percentages of total sample lane radioactivity)” value with 9L/FPGS cells [9] and in the data set on 9L cells [10] were 19% and 15%, respectively.
The matching figures for `CN(Cc1cnc2nc(N)nc(N)c2n1)c1ccc(C(=O)NC(CCC(=O)NC(CCC(=O)NC(CCC(=O)NC(CCC(=O)O)C(=O)O)C(=O)O)C(=O)O)C(=O)O)cc1` (stereo not shown) [MTX-G3]: 18% and 13%.
Take `CN(Cc1cnc2nc(N)nc(N)c2n1)c1ccc(C(=O)NC(CCC(=O)NC(CCC(=O)NC(CCC(=O)NC(CCC(=O)NC(CCC(=O)O)C(=O)O)C(=O)O)C(=O)O)C(=O)O)C(=O)O)cc1` (stereo not shown) [MTX-G4]: the figures for the “POLYGLUTAMATE DISTRIBUTION (percentages of total sample lane radioactivity)” value with 9L/FPGS cells [9] and in the data set with 9L cells [10] were 28% and 13%, respectively.
The matching figures for `CN(Cc1cnc2nc(N)nc(N)c2n1)c1ccc(C(=O)NC(CCC(=O)NC(CCC(=O)NC(CCC(=O)NC(CCC(=O)NC(CCC(=O)NC(CCC(=O)O)C(=O)O)C(=O)O)C(=O)O)C(=O)O)C(=O)O)C(=O)O)cc1` (stereo not shown) [MTX-G5]: 3% and 1%.
Take `Nc1nc(O)c2ncn(COC(CO)CO)c2n1` [ganciclovir]: the “ED50 shift nontransfected versus transfected cells” value in data set [11] was 500 fold.
